The results in this text go back to patent US6403629B2, “Heterocyclic compounds for therapeutic use” (J.B. Chemical and Pharmaceuticals Limited, priority 2000, dated 2002).

With `Cc1ccc(-c2cc(C(F)(F)F)nn2-c2cc(C)ccc2F)cc1` [Example 2H, 1-(2-Fluoro-5-methylphenyl)-5-(4-methylphenyl)-3-(trifluoromethyl)pyrazole], the melting point (as a rule, the temperature, or range, at which the solid turns liquid) worked out at 45 °C.
`Cc1ccc(-c2cc(C(F)(F)F)nn2-c2ccc(F)cc2F)cc1` [Example 2C, 1-(2,4-Difluorophenyl)-5-(4-methylphenyl)-3-(trifluoromethyl)pyrazole] displayed a melting point of 83 °C.
